From patent US8580802B2, “Pyrrolo[2,3-D]pyrimidines as inhibitors of Janus kinases” (Vertex Pharmaceuticals Incorporated, priority 2005, dated 2013) come the findings set out here.

SMILES strings stand for the structures.

By Ki is commonly meant the equilibrium dissociation constant of an inhibitor or competing ligand from its target.

In one test the target is T1, JAK3 (Homo sapiens, UniProt P52333).
T1 sequence (P52333 1-1124): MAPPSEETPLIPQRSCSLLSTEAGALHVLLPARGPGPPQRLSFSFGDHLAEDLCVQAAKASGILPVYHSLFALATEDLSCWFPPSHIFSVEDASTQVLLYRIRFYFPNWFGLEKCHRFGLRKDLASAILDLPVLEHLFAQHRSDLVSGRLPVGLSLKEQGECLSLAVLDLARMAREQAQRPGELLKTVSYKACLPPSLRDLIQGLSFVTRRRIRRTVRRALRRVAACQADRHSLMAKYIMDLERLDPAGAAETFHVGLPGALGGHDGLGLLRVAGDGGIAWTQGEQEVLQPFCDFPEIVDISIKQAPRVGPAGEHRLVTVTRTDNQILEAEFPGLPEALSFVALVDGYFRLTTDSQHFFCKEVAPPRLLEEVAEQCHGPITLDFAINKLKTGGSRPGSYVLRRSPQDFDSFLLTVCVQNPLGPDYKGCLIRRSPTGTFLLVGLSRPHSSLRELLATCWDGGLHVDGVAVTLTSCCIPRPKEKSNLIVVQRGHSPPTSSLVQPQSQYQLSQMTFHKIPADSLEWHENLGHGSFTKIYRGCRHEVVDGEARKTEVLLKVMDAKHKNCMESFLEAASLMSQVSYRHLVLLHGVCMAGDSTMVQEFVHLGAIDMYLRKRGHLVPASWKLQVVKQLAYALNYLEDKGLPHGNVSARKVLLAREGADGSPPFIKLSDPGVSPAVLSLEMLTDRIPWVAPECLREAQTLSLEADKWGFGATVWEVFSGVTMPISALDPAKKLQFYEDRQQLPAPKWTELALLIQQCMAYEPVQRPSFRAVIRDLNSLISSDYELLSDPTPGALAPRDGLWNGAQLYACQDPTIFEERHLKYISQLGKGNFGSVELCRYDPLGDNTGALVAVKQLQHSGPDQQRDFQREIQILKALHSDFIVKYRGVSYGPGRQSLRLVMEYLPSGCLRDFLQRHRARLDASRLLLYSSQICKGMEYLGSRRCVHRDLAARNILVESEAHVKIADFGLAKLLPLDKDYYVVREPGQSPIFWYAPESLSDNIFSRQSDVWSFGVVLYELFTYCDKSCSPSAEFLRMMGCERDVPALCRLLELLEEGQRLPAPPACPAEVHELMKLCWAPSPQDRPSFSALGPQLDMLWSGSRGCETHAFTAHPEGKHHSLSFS
The test is described as follows: JAK3 Inhibition Assay. Particulars: 1 nM JAK3, 1 μM poly(Glu)4Tyr, 5 μM ATP, 25° C.; read-out: enzyme inhibition data (Ki) JAK3. The class given is biochemical. In outline:
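Radiometric ^33P incorporation into poly(Glu)4Tyr (1 μM) by 1 nM human JAK3 at 5 μM ATP, in HEPES pH 7.4 buffer with MgCl2, DTT and BSA. Reaction ran 20 min at 25° C, stopped with TCA, then filtered before scintillation counting.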

A further test addresses JAK2 (Homo sapiens, UniProt O60674). The test is described as follows: JAK2 Inhibition Assay. Particulars: JAK-2 enzyme, 15 μM poly(Glu)4Tyr, 12 μM ATP. The class given is biochemical. In outline: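 Radiometric kinase assay with 1 nM JAK2 in pH 7.4 HEPES buffer (10 mM MgCl2, 1 mM DTT, 0.01% BSA), final 15 μM poly(Glu)4Tyr and 12 μM [33P]-ATP. Run 20 min at 25 °C, stopped with TCA; 33P incorporation captured on glass-fibre filters and read by scintillation counting.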

Chain of JAK2 (O60674 whole entry): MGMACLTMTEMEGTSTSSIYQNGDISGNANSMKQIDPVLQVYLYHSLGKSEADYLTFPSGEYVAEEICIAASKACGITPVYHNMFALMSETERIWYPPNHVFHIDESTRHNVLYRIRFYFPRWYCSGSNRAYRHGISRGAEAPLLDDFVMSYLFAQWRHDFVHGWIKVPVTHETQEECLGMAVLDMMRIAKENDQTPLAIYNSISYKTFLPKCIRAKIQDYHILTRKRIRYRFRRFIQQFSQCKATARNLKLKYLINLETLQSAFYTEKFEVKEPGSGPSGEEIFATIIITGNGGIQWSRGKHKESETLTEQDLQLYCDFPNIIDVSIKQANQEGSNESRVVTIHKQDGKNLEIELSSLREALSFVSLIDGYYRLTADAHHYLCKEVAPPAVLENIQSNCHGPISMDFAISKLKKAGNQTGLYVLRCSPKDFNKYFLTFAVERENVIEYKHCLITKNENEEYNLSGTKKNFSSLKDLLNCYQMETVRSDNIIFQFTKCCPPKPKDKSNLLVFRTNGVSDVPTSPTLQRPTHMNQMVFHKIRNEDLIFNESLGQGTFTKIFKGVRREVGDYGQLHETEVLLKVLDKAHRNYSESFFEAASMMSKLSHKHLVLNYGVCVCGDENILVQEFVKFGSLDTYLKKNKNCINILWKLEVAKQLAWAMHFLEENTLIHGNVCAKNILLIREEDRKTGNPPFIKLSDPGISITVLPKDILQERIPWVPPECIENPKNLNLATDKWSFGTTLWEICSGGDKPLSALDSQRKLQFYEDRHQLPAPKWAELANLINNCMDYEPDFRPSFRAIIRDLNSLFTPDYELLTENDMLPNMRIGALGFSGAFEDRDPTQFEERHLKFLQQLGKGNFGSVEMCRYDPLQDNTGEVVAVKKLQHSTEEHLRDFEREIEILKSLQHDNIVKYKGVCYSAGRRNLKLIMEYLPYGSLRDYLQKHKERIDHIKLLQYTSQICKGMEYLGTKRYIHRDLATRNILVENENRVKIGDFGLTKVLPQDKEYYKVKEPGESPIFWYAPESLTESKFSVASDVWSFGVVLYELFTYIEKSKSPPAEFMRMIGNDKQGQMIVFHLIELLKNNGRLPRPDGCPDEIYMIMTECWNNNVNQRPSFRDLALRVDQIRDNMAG

With `CN(c1nc(-c2c[nH]c3ncncc23)ncc1F)C1(C(=O)NCC(F)(F)F)CC1` [Compound 99], the Ki on JAK3 was below 500 nM; at JAK2 it was 500 to 5000 nM.

As to `CN(c1nc(-c2c[nH]c3ncncc23)ncc1F)C(C(=O)NCC(F)(F)F)c1ccccc1` (stereo not drawn) [Compound 100], the Ki at JAK3 is below 500 nM; on JAK2, 500 to 5000 nM.

Take `O=C(NCC(F)(F)F)C1(Nc2ccnc(-c3c[nH]c4ncncc34)n2)CCOC1` (stereo not drawn) [Compound 101]: the inhibition constant Ki on JAK3 and on JAK2 was below 500 nM in each case.

On to `CC1(C(=O)NCC(F)(F)F)CCCN1c1nc(-c2c[nH]c3ncncc23)ncc1F` (stereo not drawn) [Compound 102], for which the inhibition constant (Ki) at JAK3 and on JAK2 was below 500 nM each time.

For `C[C@@H](Nc1ccnc(-c2c[nH]c3ncncc23)n1)C(=O)N(C)CC(F)(F)F` [Compound 103], the figures for the inhibitory constant (Ki) at JAK3 and at JAK2 were below 500 nM and 500 to 5000 nM, respectively.

Consider `C[C@@H](Nc1nc(-c2c[nH]c3ncncc23)ncc1F)C(=O)N(C)CC(F)(F)F` [Compound 104], for which the figures for the inhibitory constant (Ki) on JAK3 and at JAK2 were below 500 nM and 500 to 5000 nM, respectively.

As to `CC(C)(Nc1nc(-c2c[nH]c3ncncc23)nc2ccccc12)C(=O)NCC(F)(F)F` [Compound 105], the Ki on JAK3 and at JAK2 was below 500 nM in each case.

Consider `CC(C)(Nc1nc(-c2c[nH]c3ncncc23)ncc1F)C(=O)NCCF` [Compound 106], for which the inhibition constant Ki on JAK3 and on JAK2 was below 500 nM in each case.

On to `CC(C)(Nc1nc(-c2c[nH]c3ncncc23)ncc1F)C(=O)NCC(F)F` [Compound 107], for which the Ki on JAK3 and at JAK2 was below 500 nM throughout.

For the molecule `CC(C)(C(=O)NCC(F)(F)F)n1cnc2cnc(-c3c[nH]c4ncncc34)nc21` [Compound 108, 2-(2-(7H-pyrrolo[2,3-d]pyrimidin-5-yl)-9H-purin-9-yl)-N-(2,2,2-trifluoroethyl)-2-methylpropanamide], the inhibition constant (Ki) at JAK3 and at JAK2 was below 500 nM in each case.

For `O=C(Cn1ccc2cnc(-c3c[nH]c4ncncc34)nc21)NCC(F)(F)F` [Compound 109], the Ki on JAK3 and on JAK2 was below 500 nM each time.

For `CC(C)[C@H](C(=O)NCC(F)(F)F)n1ccc2cnc(-c3c[nH]c4ncncc34)nc21` [Compound 110, (R)-2-(2-(7H-pyrrolo[2,3-d]pyrimidin-5-yl)-7H-pyrrolo[2,3-d]pyrimidin-7-yl)-N-(2,2,2-trifluoroethyl)-3-methylbutanamide], the Ki on JAK3 and on JAK2 was below 500 nM throughout.

For `O=C(CCn1ccc2cnc(-c3c[nH]c4ncncc34)nc21)NCC(F)(F)F` [Compound 111], the inhibition constant (Ki) on JAK3 and at JAK2 was below 500 nM each time.

As for `CC[C@@H](C(=O)NCC(F)(F)F)n1ccc2cnc(-c3c[nH]c4ncncc34)nc21` [Compound 112], the inhibition constant (Ki) on JAK3 and on JAK2 was below 500 nM throughout.

On to `CC[C@@H](C(=O)NCC(F)(F)F)n1cnc2cnc(-c3c[nH]c4ncncc34)nc21` [Compound 113], for which the Ki on JAK3 and at JAK2 was below 500 nM in each case.
